Experiments:
[1] = molecular target: BCL6 BTB domain (Homo sapiens (Human), UniProt P41182); experiment: Surface plasmon resonance (SPR) assay; format: binding; conditions: BCL6 BTB domain captured on SA chip, single cycle kinetics
[2] = tested on: BCL6 reporter construct (3xBCL6-TK-Luc) in SuDHL4 cells; experiment: Cell-based luciferase assay; conditions: Homo sapiens, SU-DHL-4, 48 h, read-out: Luciferase-Assay EC50, uM), SuDHL4-3xBCL6-TK-Luc cells, two days, high dose 10 uM
Summary of the method: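 SuDHL4 cells stably carrying a 3×BCL6-site TK-promoter firefly luciferase reporter, seeded at 15,000 cells/well, were dosed over a 10-point range (top 10 uM) and grown two days at 37 °C, 5% CO2. Luminescence then read after adding neolite reagent at room temperature.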

[3] = tested on: Karpas422 cells; experiment: Tumor cell growth inhibition assay; format: cell-based; conditions: Homo sapiens, KARPAS-422, 144 h, read-out: Tumor Growth Inhibition in Karpas-422 (IC50, uM), Karpas422 cells, six days, ATPlite
Summary of the method: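 Karpas422 cells (2,000/well) in Alpha-MEM with 10% FBS dosed across 10 concentrations (top 5 uM) and grown six days at 37° C., 5% CO2. Viability read as ATPlite luminescence.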

| SMILES | Kd [1] | EC50 [2] | IC50 [3] |
| --- | --- | --- | --- |
| Cc1ccc(CN2CCN(c3cc(NC(=O)Cn4cc(-c5cc(C(N)=O)c(O)c(F)c5F)c5c(=O)n(C)cnc54)c(Cl)cn3)[C@@H](C)C2)s1 [Compound I-406] | 0.574 µM | 3.06 µM | 4.32 µM |
| C[C@H]1CN(CC2(C#N)CC2)CCN1c1cc(NC(=O)Cn2cc(-c3cc(C(N)=O)c(O)c(F)c3F)c3c(=O)n(C)cnc32)c(Cl)cn1 [Compound I-407] | 0.0236 µM | 0.783 µM | 0.377 µM |
| C[C@H]1CN(CC2CCC2)CCN1c1cc(NC(=O)Cn2cc(-c3cc(C(N)=O)c(O)c(F)c3F)c3c(=O)n(C)cnc32)c(Cl)cn1 [Compound I-408] | 0.0382 µM | 0.759 µM | 0.463 µM |
| C[C@H]1COCCN1c1cc(NC(=O)Cn2cc(-c3cc(C(N)=O)c(O)c(Cl)c3F)c3c(=O)n(C)cnc32)c(Cl)c(F)n1 [Compound I-409] | 0.0952 µM | 2.34 µM | 1.82 µM |
| COc1c(O)c(C(N)=O)cc(-c2cn(CC(=O)Nc3cc(N4CCOC[C@@H]4C)nc(F)c3Cl)c3ncn(C)c(=O)c23)c1F [Compound I-411] | 0.0462 µM | 0.771 µM | 1.12 µM |
| C[C@H]1CN(C2COC2)CCN1c1cc(NC(=O)Cn2cc(-c3cc(Cl)c(O)c(C(N)=O)c3)c3c(=O)n(C)cnc32)c(Cl)c(F)n1 [Compound I-413] | 0.00615 µM | 0.06 µM | 0.0822 µM |
| COCCN1CCN(c2cc(NC(=O)Cn3cc(-c4cc(C(N)=O)c(O)c(F)c4F)c4c(=O)n(C)cnc43)c(Cl)cn2)[C@@H](C)C1 [Compound I-414] | 0.0179 µM | 0.374 µM | 0.455 µM |
| COCCN1CCN(c2cc(NC(=O)Cn3cc(-c4cc(Cl)c(O)c(C(N)=O)c4)c4c(=O)n(C)cnc43)c(Cl)cn2)[C@@H](C)C1 [Compound I-415] | 0.00595 µM | 0.0872 µM | 0.122 µM |
| COCCN1CCN(c2cc(NC(=O)Cn3cc(-c4cc(F)c(O)c(C(N)=O)c4)c4c(=O)n(C)cnc43)c(Cl)cn2)[C@@H](C)C1 [Compound I-416] | 0.00273 µM | 0.0787 µM | 0.0592 µM |
| Cn1cnc2c(c(-c3cc(C(N)=O)c(O)c(F)c3F)cn2CC(=O)Nc2cc(N3CCCC3)nc(F)c2Cl)c1=O [Compound I-417] | 0.0217 µM | 0.478 µM | 0.441 µM |
| Cn1cnc2c(c(-c3cc(Cl)c(O)c(C(N)=O)c3)cn2CC(=O)Nc2cc(N3CCCC3)nc(F)c2Cl)c1=O [Compound I-418] | 0.0221 µM | 0.663 µM | 0.303 µM |
| Cn1cnc2c(c(-c3cc(F)c(O)c(C(N)=O)c3)cn2CC(=O)Nc2cc(N3CCCC3)nc(F)c2Cl)c1=O [Compound I-419] | 0.00585 µM | 0.348 µM | 0.22 µM |
| CN(C)c1cc(NC(=O)Cn2cc(-c3cc(C(N)=O)c(O)c(F)c3F)c3c(=O)n(C)cnc32)c(Cl)c(F)n1 [Compound I-420] | 0.0163 µM | 0.429 µM | 0.383 µM |
| CN(C)c1cc(NC(=O)Cn2cc(-c3cc(Cl)c(O)c(C(N)=O)c3)c3c(=O)n(C)cnc32)c(Cl)c(F)n1 [Compound I-421] | 0.0147 µM | 0.154 µM | 0.154 µM |
| CN(C)c1cc(NC(=O)Cn2cc(-c3cc(F)c(O)c(C(N)=O)c3)c3c(=O)n(C)cnc32)c(Cl)c(F)n1 [Compound I-423] | 0.00506 µM | 0.143 µM | 0.0391 µM |
| C[C@@H](C1CC1)N1CCN(c2cc(NC(=O)Cn3cc(-c4cc(C(N)=O)c(O)c(F)c4F)c4c(=O)n(C)cnc43)c(Cl)cn2)[C@@H](C)C1 [Compound I-424] | 0.0261 µM | 0.309 µM | 0.157 µM |
| C[C@H](C1CC1)N1CCN(c2cc(NC(=O)Cn3cc(-c4cc(C(N)=O)c(O)c(F)c4F)c4c(=O)n(C)cnc43)c(Cl)cn2)[C@@H](C)C1 [Compound I-425] | 0.0447 µM | 0.629 µM | 0.624 µM |
| CCN1CCN(c2cc(NC(=O)Cn3cc(-c4cc(C(N)=O)c(O)c(F)c4F)c4c(=O)n(C)cnc43)c(Cl)c(F)n2)[C@@H](C)C1 [Compound I-426] | 0.0177 µM | 0.226 µM | 0.128 µM |
| CCN1CCN(c2cc(NC(=O)Cn3cc(-c4cc(Cl)c(O)c(C(N)=O)c4)c4c(=O)n(C)cnc43)c(Cl)c(F)n2)[C@@H](C)C1 [Compound I-427] | 0.0138 µM | 0.156 µM | 0.114 µM |

| SMILES | Kd [1] | EC50 [2] | IC50 [3] |
| --- | --- | --- | --- |
| CCN1CCN(c2cc(NC(=O)Cn3cc(-c4cc(F)c(O)c(C(N)=O)c4)c4c(=O)n(C)cnc43)c(Cl)c(F)n2)[C@@H](C)C1 [Compound I-428] | 0.00235 µM | 0.102 µM | 0.0682 µM |
| Cc1nc2c(c(-c3cc(C(N)=O)c(O)c(F)c3F)cn2CC(=O)Nc2cc(N3CCN(C4COC4)C[C@@H]3C)nc(F)c2Cl)c(=O)n1C [Compound I-429] | 0.0109 µM | 0.162 µM | 0.154 µM |
| C[C@H]1CN(C)CCN1c1cc(NC(=O)Cn2cc(-c3cc(F)c(O)c(C(N)=O)c3)c3c(=O)n(CCC(=O)c4cnn(C)c4)cnc32)c(Cl)c(F)n1 [Compound I-430, (S)-5-(7-(2-((3-chloro-6-(2,4-dimethylpiperazin-1-yl)-2-fluoropyridin-4-yl)amino)-2-oxoethyl)-3-(3-(1-methyl-1H-pyrazol-4-yl)-3-oxopropyl)-4-oxo-4,7-dihydro-3H-pyrrolo[2,3-d]pyrimidin-5-yl)-3-fluoro-2-hydroxybenzamide] | 0.0232 µM | 0.622 µM | 0.38 µM |
| CCN1CCN(c2cc(NC(=O)Cn3cc(-c4cc(Cl)c(O)c(C(N)=O)c4)c4c(=O)n(C)c(C)nc43)c(Cl)cn2)[C@@H](C)C1 [Compound I-431] | 0.0307 µM | 0.193 µM | 0.175 µM |
| C[C@H]1CN(C)CCN1c1cc(NC(=O)Cn2cc(-c3cc(F)c(O)c(C(N)=O)c3)c3c(=O)n(CC#Cc4cnn(C)c4)cnc32)c(Cl)c(F)n1 [Compound I-432, (S)-5-(7-(2-((3-chloro-6-(2,4-dimethylpiperazin-1-yl)-2-fluoropyridin-4-yl)amino)-2-oxoethyl)-3-(3-(1-methyl-1H-pyrazol-4-yl)prop-2-yn-1-yl)-4-oxo-4,7-dihydro-3H-pyrrolo[2,3-d]pyrimidin-5-yl)-3-fluoro-2-hydroxybenzamide] | 0.00239 µM | 0.0347 µM | 0.0181 µM |
| CN(C)C1CN(c2cc(NC(=O)Cn3cc(-c4cc(F)c(O)c(C(N)=O)c4)c4c(=O)n(C)cnc43)c(Cl)cn2)C1 [Compound I-433] | 0.00842 µM | 0.548 µM | 0.201 µM |
| Cc1nc2c(c(-c3cc(Cl)c(O)c(C(N)=O)c3)cn2CC(=O)Nc2cc(N3CCN(C4COC4)C[C@@H]3C)nc(F)c2Cl)c(=O)n1C [Compound I-434] | 0.00545 µM | 0.0381 µM | 0.05 µM |
| CCN1CCN(c2cc(NC(=O)Cn3cc(-c4cc(C(N)=O)c(O)c(F)c4F)c4c(=O)n(C)c(C)nc43)c(Cl)cn2)[C@@H](C)C1 [Compound I-435] | 0.0489 µM | 0.847 µM | 0.415 µM |
| Cn1cnc2c(c(-c3cc(F)c(O)c(C(N)=O)c3)cn2CC(=O)Nc2cc(N3C4CCC3COC4)ncc2Cl)c1=O [Compound I-436] | 0.0141 µM | 0.803 µM | 0.401 µM |
| C[C@H]1CN(C2COC2)CCN1c1cc(NC(=O)Cn2cc(-c3cc(C(N)=O)c(O)c(F)c3F)c3c(=O)n(C)cnc32)c(Cl)c(F)n1 [Compound I-437] | 0.0113 µM | 0.231 µM | 0.124 µM |
| C[C@H]1CN(C2COC2)CCN1c1cc(NC(=O)Cn2cc(-c3cc(F)c(O)c(C(N)=O)c3)c3c(=O)n(C)cnc32)c(Cl)c(F)n1 [Compound I-438] | 0.0025 µM | 0.0686 µM | 0.0508 µM |
| CO[C@H]1CC(c2cc(NC(=O)Cn3cc(-c4cc(Cl)c(O)c(C(N)=O)c4)c4c(=O)n(C)cnc43)c(Cl)c(F)n2)C[C@H]1F (stereo partly drawn) [Compound I-439] | 0.0329 µM | 0.267 µM | 0.28 µM |
| CO[C@@H]1CC(c2cc(NC(=O)Cn3cc(-c4cc(Cl)c(O)c(C(N)=O)c4)c4c(=O)n(C)cnc43)c(Cl)c(F)n2)C[C@@H]1F (stereo partly drawn) [Compound I-440] | 0.0158 µM | 0.286 µM | 0.291 µM |
| CO[C@H]1CN(c2cc(NC(=O)Cn3cc(-c4cc(C(N)=O)c(O)c(F)c4F)c4c(=O)n(C)cnc43)c(Cl)c(F)n2)C[C@H]1F [Compound I-441] | 0.0223 µM | 0.324 µM | 0.338 µM |
| CO[C@@H]1CN(c2cc(NC(=O)Cn3cc(-c4cc(C(N)=O)c(O)c(F)c4F)c4c(=O)n(C)cnc43)c(Cl)c(F)n2)C[C@@H]1F [Compound I-442] | 0.0218 µM | 0.386 µM | 0.266 µM |
| C[C@H]1CN(CC2CC2)CCN1c1cc(NC(=O)Cn2cc(-c3cc(C(N)=O)c(O)c(F)c3F)c3c(=O)n(C)cnc32)c(Cl)c(F)n1 [Compound I-443] | 0.0186 µM | 0.285 µM | 0.149 µM |
| C[C@H]1CN(CC2CC2)CCN1c1cc(NC(=O)Cn2cc(-c3cc(Cl)c(O)c(C(N)=O)c3)c3c(=O)n(C)cnc32)c(Cl)c(F)n1 [Compound I-444] | 0.0198 µM | 0.239 µM | 0.104 µM |
| C[C@H]1CN(CC2CC2)CCN1c1cc(NC(=O)Cn2cc(-c3cc(F)c(O)c(C(N)=O)c3)c3c(=O)n(C)cnc32)c(Cl)c(F)n1 [Compound I-445] | 0.00732 µM | 0.0854 µM | 0.0622 µM |
| COCCN1CCN(c2cc(NC(=O)Cn3cc(-c4cc(C(N)=O)c(O)c(F)c4F)c4c(=O)n(C)cnc43)c(Cl)c(F)n2)[C@@H](C)C1 [Compound I-446] | 0.00729 µM | 0.157 µM | 0.137 µM |
